Laboratory results from US12617794B2, “GABAA positive allosteric modulator compounds, methods of making, and uses thereof” (NEUROCYCLE THERAPEUTICS, INC., priority 2019, dated 2026).
Read-outs that look alike come from different tables or passages of the source.

Key:
[1] = Pharmacokinetics in rats (Example 17); assay type: in vivo, Sprague-dawley rats; settings: rat, PO 2 mg/kg, mean
Experimental: To evaluate the pharmacokinetics (PK) of Phosphate Polymorphic Form A, suspensions or solutions were dosed by either oral gavage (0.5% methyl cellulose) or IV (60% PEG400/40% saline) in normal, healthy, male Sprague-dawley rats with serial blood collection focused on the first 48 hours of exposure. Rats were dosed with vehicle or test compounds at 1 mg/kg (IV) or 2 mg/kg (PO). Approximately 0.2 mL blood was collected at each time point. All blood samples were collected jugular vein puncture. All blood samples were transferred into plastic microcentrifuge tubes containing 5 μL of EDTA-K2 as anti-coagulant or pre-chilled commercial EDTA-K2 tubes and placed on wet ice until centrifugation. Harvested blood samples were centrifuged within 30 min of collection at 7,000 rpm for 10 minutes. The extracts were analyzed for compound concentration by LC/MS/MS. Data were analyzed with Phoenix WinNonlin 6.3 using the IV-Noncompartmental model 201 (IV bolus input) and PO-Noncompartmental model 200 (extravascular input) methods.

[2] = DVS of TPA023B Phosphate Form A (Example 33); assay type: physicochemical; settings: for hygroscopicity: DVS; for crystal form after DVS test: XRPD
[3] = Polymer induced crystallization (Example 67); assay type: physicochemical; settings: evaporative crystallization at RT, ~10% polymer
Experimental: Then ˜10% of polymer was added into clear solution. The mixture was evaporated to dryness at RT. The solid was isolated and characterized.
No new phosphate form was obtained.

[4] = Solid-state stability of Phosphate Form A at 40° C./75% RH and 25° C./95% RH (Example 36); assay type: physicochemical; settings: up to two weeks
[5] = Intrinsic dissolution rate in SGF (Example 16); assay type: physicochemical; settings: 37° C., 100 rpm, linear scope within 2 to 120 min
Experimental: About 100 mg of Free Base Polymorphic Form A or Phosphate Polymorphic Form A was weighed into the intrinsic dissolution apparatus and the sample compressed for 1 minute with a compression force of ˜4 MPa to form a compacted pellet within the stainless-steel die. All loose powder was removed from the surface of the die. The intrinsic dissolution shaft was connected with the stainless-steel die and tightened so only one surface of the pellet was exposed (surface area=0.496 cm^2). The shaft in the spindle was adjusted to ensure the exposed surface of the compacted tablet was ˜3.8 cm from the bottom of the vessel when lowered. The temperature of chamber water was set at 37° C.±0.5° C., the shaft rotation at 100 rpm and the sampling time points at 2, 5, 10, 15, 30, 45, 60, 120 min. SGF was used as dissolution medium (900 mL). At each time point, solution samples were filtered, and the supernatant was analyzed by HPLC-UV.

[6] = Preliminary (estimated) solubility study of TPA023B Phosphate Form A (30.3, Example 34); assay type: physicochemical; settings: estimated by visual observation
Experimental: Then the mixture was agitated in a shaker block for at least 30 mins. Additional solvent was added in a stepwise manner until all solids were dissolved. The dissolution was checked by visual observation and the amount of solvent required to dissolve all the solids was recorded.

[7] = Hygroscopicity by dynamic vapor sorption (DVS), Example 4; assay type: physicochemical
Experimental: The hygroscopicity of Phosphate Polymorph Form A was measured by Dynamic vapor sorption (DVS). […] After DVS, XRPD confirmed that the crystalline form was retained (FIG. 19).

AUCExtra (%) [1]: 6.25%
hygroscopicity ([2]; listed as Phosphate Form A): slightly hygroscopic
hygroscopicity ([2]; listed as phosphate Form A): slight hygroscopicity
crystal form after DVS test ([2]; listed as Phosphate Form A): remained unchanged
crystal form after DVS test ([2]; listed as phosphate Form A): no change
water absorbed (DVS) ([2]; from 0 to 80% RH): 0.68%
Result (solid form obtained) ([3]; solvent MEK, polymer EC (Ethyl cellulose)): Phosphate Form A
Result (solid form obtained) ([3]; solvent MEK, polymer PAA Poly(acrylic acid)): Phosphate Form A
Result (solid form obtained) ([3]; solvent MEK, polymer PEG4000, listed as Phosphate Form A): Free Base Form F
Result (solid form obtained) ([3]; solvent MEK, polymer PVP-K30 (Polyvinyl pyrrolidone), listed as Phosphate Form A): Free Base Form F
Result (solid form obtained) ([3]; solvent THF, polymer EC): Phosphate Form A
Result (solid form obtained) ([3]; solvent THF, polymer PAA Poly): Phosphate Form A
Result (solid form obtained) ([3]; solvent THF, polymer PEG4000): Phosphate Form A
Result (solid form obtained) ([3]; solvent THF, polymer PVP-K30): Phosphate Form 1A
crystal form after storage ([4]; 25° C./95% RH): remained unchanged
crystal form after storage ([4]; 40° C./75% RH): remained unchanged
intrinsic dissolution rate [5]: 0.184 mg·cm^−2min^−1
solubility ([6]; 1,4-Dioxane, organic solvent or mixture, thermodynamic from solid, 1,4-Dioxane, read-out: Solubility): 25000 µg/mL
solubility ([6]; 2-Me THF, organic solvent or mixture, thermodynamic from solid, 2-Me THF, read-out: Solubility): 20000 µg/mL
solubility ([6]; ACN, organic solvent or mixture, thermodynamic from solid, ACN, read-out: Solubility): < 2000 µg/mL
solubility ([6]; DCM, organic solvent or mixture, thermodynamic from solid, DCM, read-out: Solubility): 2000 µg/mL
solubility ([6]; DMF, organic solvent or mixture, thermodynamic from solid, DMF, read-out: Solubility): 96000 µg/mL
solubility ([6]; DMSO, organic solvent or mixture, thermodynamic from solid, DMSO, read-out: Solubility): 93000 µg/mL
solubility ([6]; EA, organic solvent or mixture, thermodynamic from solid, EA, read-out: Solubility): < 2000 µg/mL
solubility ([6]; EA, listed as TPA023B Phosphate Form A): <2000 µg/mL
solubility ([6]; Heptane, listed as TPA023B Phosphate Form A): <1000 µg/mL
solubility ([6]; IPA, organic solvent or mixture, thermodynamic from solid, IPA, read-out: Solubility): 2500 µg/mL
solubility ([6]; MTBE, organic solvent or mixture, thermodynamic from solid, MTBE, read-out: Solubility): < 2000 µg/mL
solubility ([6]; MTBE, listed as TPA023B Phosphate Form A): <1500 µg/mL
solubility ([6]; THF, organic solvent or mixture, thermodynamic from solid, THF, read-out: Solubility): 28000 µg/mL
solubility ([6]; Water, listed as TPA023B Phosphate Form A): <2000 µg/mL
solubility ([6]; acetone, organic solvent or mixture, thermodynamic from solid, Acetone, read-out: Solubility): 7000 µg/mL
solubility ([6]; ethanol, organic solvent or mixture, thermodynamic from solid, Ethanol, read-out: Solubility): 3000 µg/mL
solubility ([6]; heptane, organic solvent or mixture, thermodynamic from solid, Heptane, read-out: Solubility): < 2000 µg/mL
solubility ([6]; methanol, organic solvent or mixture, thermodynamic from solid, Methanol, read-out: Solubility): 9500 µg/mL
solubility ([6]; water, thermodynamic from solid, Water, read-out: Solubility): < 2000 µg/mL
crystalline form after DVS (XRPD) [7]: retained
reversible mass increase (DVS) [7]: about 1.08%
SMILES: CC(C)(O)c1cnn2c(-c3ccc(F)c(-c4c(F)cccc4C#N)c3)cnc2n1 [Phosphate Polymorphic Form A, 2′,6-difluoro-5′-[3-(1-hydroxy-1-methylethyl)-imidazo[1,2-b][1,2,4]triazin-7-yl]biphenyl-2-carbonitrile]
